Laboratory results as given in paper PMC3472974, “The Bite of the Honeybee: 2-Heptanone Secreted from Honeybee Mandibles during a Bite Acts as a Local Anaesthetic in Insects and Mammals” (PLoS ONE, 2012).
Read-outs that look alike come from different tables or passages of the source.

Tests used:
[1] = test system: rat; settings: oral rat; no reference given; cited from earlier work
[2] = biological target: T1, hNav1.6 channels (Homo sapiens, UniProt Q9UQD0); experiment: Patch-clamp (PatchXpress 7000A) on transfected CHO cells, hNav1.6; type: cell-based; settings: for IC50: CHO cells, n = 6, mean ± SEM, 2-H exposure limited to 3 min, read-out: hNav1.6 IC50 (converted); for times less active than lidocaine: hNav1.6
T1 construct: expressed in transfected cells; host or cells: CHO-K1 (ATCC CCL-61)
Source text: To test whether 2-H can act by blocking VGNaCs, the PatchXpress 7000A was used. Mammalian CHO (Chinese hamster ovary) transfected with ion hNav1.2 and hNav1.6 channels cDNAs (SCN2A and SCN8A genes) were exposed to 2-H under both tonic and phasic conditions. The mammalian CHO-K1 epithelial embryonic cell line (ATCC number CCL-61) from Cricetulus griseus was obtained from ATCC, Manassas, VA. CHO-K1 cells were transfected with either hNav1.2 or hNav1.6 channel cDNA (SCN2A and SCN8A genes, respectively) and were exposed to 2-H under both tonic and phasic conditions.
The effects of 2-H were evaluated on hNav1.2 at 0.73, 1.46, 2.19, and 2.92 mg/mL and on hNav1.6 channels at 0.1, 0.36, 0.73, and 1.46 mg/mL, with each concentration tested in at least six cells (n = 6). Cells were exposed to each concentration of 2-H and measurements of the inward current were obtained within the first 3 min of exposure. […] Since the PatchXpress has open cell chambers where the testing occurs, there is no way to hermetically seal the experiment.
Based on this analysis, we estimated the IC50.

[3] = test system: honeybees; set-up: method as in earlier work; settings: cited from earlier work
[4] = test system: nerves of the rat tail; set-up: method as in PMID 6093852; settings: cited from earlier work
[5] = test system: honeybees; experiment: Recruitment of defensive honeybees at the colony entrance, BeeSCAN counters; type: in vivo, Apis mellifera; settings: control 46.42
Description: We first tested the dominant hypothesis that honeybees secrete 2-H as an alarm pheromone that recruits other honeybees in the face of a potential threat. We monitored honeybee response to different doses of 2-H applied at colony entrances. In control colonies, which were not exposed to 2-H, an average of 46.42 bees left the colony per minute (n = 5, SEM = 0.43). There was no statistical difference, 10 minutes after application, between the mean number of bees recruited in control colonies and those recruited in colonies exposed to 0.1 µL 2-H (mean = 47.18, n = 5, SEM = 0.36, p = 1.000). In contrast, higher doses of 2-H acted as a repellent.
We conducted field experiments at the apiary, in which we used electronic monitoring devices (BeeSCAN v2.03) to test whether the presence of 2-H on the colony flight boards stimulated recruitment of defensive honeybees. The monitoring devices counted the number of honeybees exiting the beehive once per minute for 10 minutes for each of the five colonies per treatment. […] To apply 2-H, we followed the standard methodology described in previous experiments.

[6] = test system: wax moth larvae (WML); experiment: Locomotory pattern of tethered wax moth larvae after injection; type: in vivo, Galleria mellonella; settings: 2.5 µL injected (8.15 mg per 1 g body weight), larger WML body weight 0.25 g
Source text: To monitor the constant locomotory pattern of WML, the probe of a force-displacement transducer (FT-03C, Grass Instrument Company, USA), attached to a micromanipulator, was hooked onto the tail of the WML, while the head was carefully pinned to a wax substrate, [14]. The electrical signal generated by the rhythmic force produced during locomotion was amplified and fed to a computer through a data acquisition card interface (Keithley KPCI 3102, Keithley Instruments, Cleveland, OH, USA). Software designed using the facilities of Labview (Labview 5.1, National Instruments USA) permitted analysis of the recorded data.

[7] = no reference given; cited from earlier work
[8] = test system: Varroa destructor; experiment: Gravitational reflex of Varroa mites after topical application; type: in vivo
Description: We tested 2-H on a far smaller arthropod that parasitizes honeybees, the mite, Varroa destructor. When 0.025 µL of 2-H was applied topically to the sternum of mites (n = 10) fixed ventral side up, the gravitational reflex–the rhythmic expansion of the thorax and abdomen [15]–was distorted (Fig. 3d). When the concentration was increased to 0.061 µL, the gravitational reflex completely malfunctioned and the Varroa mites (n = 10) were totally paralysed within 30–40 s (Fig. 3e) with no recovery, even after 12 h of observation. We applied larger concentrations of 2-H to the Varroa mites topically because the mites’ small size made it impossible to inject 2-H into the haemolymph.

T1 sequence (Q9UQD0 whole entry): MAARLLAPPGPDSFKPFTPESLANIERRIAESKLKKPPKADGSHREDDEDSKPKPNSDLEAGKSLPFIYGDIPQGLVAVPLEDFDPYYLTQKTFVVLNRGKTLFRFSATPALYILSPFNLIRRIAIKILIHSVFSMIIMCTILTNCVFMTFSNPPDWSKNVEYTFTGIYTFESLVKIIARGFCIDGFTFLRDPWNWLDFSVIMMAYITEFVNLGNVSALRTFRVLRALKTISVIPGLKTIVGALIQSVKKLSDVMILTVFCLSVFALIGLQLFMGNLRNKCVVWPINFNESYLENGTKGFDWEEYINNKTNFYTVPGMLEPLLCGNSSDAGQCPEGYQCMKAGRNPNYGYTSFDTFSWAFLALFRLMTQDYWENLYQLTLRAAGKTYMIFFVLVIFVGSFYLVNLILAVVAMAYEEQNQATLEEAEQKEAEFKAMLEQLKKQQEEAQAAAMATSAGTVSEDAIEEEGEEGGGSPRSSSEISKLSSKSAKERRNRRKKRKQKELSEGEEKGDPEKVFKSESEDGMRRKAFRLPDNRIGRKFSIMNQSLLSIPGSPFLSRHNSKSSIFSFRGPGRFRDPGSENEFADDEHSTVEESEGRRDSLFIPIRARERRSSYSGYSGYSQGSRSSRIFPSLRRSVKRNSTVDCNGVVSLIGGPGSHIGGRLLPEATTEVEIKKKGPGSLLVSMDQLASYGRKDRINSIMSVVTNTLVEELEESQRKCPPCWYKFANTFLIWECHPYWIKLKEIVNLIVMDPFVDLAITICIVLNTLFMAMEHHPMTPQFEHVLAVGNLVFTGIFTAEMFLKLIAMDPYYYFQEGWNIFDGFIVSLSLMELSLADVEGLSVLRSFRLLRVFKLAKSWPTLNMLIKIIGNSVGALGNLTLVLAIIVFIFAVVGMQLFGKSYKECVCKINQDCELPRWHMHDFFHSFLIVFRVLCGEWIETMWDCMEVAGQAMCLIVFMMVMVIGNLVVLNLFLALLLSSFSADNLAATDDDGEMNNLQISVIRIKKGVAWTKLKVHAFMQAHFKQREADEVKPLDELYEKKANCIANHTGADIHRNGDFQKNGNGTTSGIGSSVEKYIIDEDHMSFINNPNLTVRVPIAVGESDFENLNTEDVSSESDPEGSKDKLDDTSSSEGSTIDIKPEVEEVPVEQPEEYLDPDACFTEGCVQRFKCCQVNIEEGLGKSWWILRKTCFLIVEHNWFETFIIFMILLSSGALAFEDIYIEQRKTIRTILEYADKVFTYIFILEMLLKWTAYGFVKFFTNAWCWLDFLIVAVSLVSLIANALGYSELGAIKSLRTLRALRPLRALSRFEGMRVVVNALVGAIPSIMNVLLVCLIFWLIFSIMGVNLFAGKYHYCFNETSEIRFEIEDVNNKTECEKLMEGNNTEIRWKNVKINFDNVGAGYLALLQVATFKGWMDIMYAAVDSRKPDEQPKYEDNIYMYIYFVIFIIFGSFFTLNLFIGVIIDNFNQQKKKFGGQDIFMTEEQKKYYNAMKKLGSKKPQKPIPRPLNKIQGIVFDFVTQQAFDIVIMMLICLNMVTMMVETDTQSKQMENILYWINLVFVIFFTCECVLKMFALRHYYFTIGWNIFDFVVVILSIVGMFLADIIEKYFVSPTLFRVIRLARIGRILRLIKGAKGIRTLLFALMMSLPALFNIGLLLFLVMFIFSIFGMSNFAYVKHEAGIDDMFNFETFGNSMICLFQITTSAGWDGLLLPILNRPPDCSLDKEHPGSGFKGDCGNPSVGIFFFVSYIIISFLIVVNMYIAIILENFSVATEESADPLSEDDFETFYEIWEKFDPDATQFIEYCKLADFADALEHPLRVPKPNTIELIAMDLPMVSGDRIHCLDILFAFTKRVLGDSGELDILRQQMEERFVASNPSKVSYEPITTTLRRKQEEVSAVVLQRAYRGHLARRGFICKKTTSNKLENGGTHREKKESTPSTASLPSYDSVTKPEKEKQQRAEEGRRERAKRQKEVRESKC

CCCCCC(C)=O [2-H, 2-heptanone]
acute LD50 [1]: 1670 mg/kg | IC50 ([2]; Phasic Experiment): 4.64 mM | IC50 ([2]; Tonic Experiment): 7.18 mM | times less active than lidocaine ([2]; phasic experiments): 7.57 times | times less active than lidocaine ([2]; tonic experiments): 2.82 times | low concentration easily detectable by honeybees [3]: 4.049 µg/mL | neurotoxic effects in vivo [4]: no neurotoxic effects | mean number of bees leaving the colony per minute ([5]; 0.1 µL 2-H at colony entrance, 10 minutes after application, p = 1.000): 47.18 per minute | mean number of honeybees exiting the hive per minute ([5]; 10 µL 2-H at colony entrance, p = 0.003): 42.54 per minute | mean number of honeybees exiting the hive per minute ([5]; 1000 µL 2-H at colony entrance, p = 0.002): 40.88 per minute | effect on locomotory pattern [6]: body movement stopped abruptly | recovery time of locomotory pattern ([6]; n = 8): 87.62 min | logP [7]: 1.98 | effect on gravitational reflex ([8]; 0.025 µL applied topically to the sternum, n = 10): distorted | recovery from paralysis ([8]; 0.061 µL applied topically, 12 h of observation): no recovery
